These results are taken from patent US8624079B2, “Knockin mouse with a disruption in a PXR gene expressing human PXR” (ITI Scotland Limited, priority 2007, dated 2014).

SMILES strings stand for the structures. “Also recorded” adds a separate entry of the source. Where two headings read alike, the source gives them in different places.

In series [1] the test system is Cyp3a11. Description: Cyp3a11 protein expression in liver microsomes of treated mice by SDS-PAGE and Western blotting. The note with it: for Cyp3a11 expression in liver (Western blot): single injection 0, 1, 10, 50 mg/kg, 48 hours. The method, then: (§1) Dosing solutions were prepared on the day of administration by adding corn oil to the requisite quantity of test substance and stirring to obtain a solution or fine suspension. The concentration of PCN was 10 mg/ml and Rif 2.5 mg/ml of supplied chemical, without any correction for purity. Records of preparation were retained.
The volume of vehicle and solutions of inducing agents administered was 10 ml/kg bodyweight. This route of administration was chosen for consistency with previously published work. […]
(§2) Quantification of Cyp3a11, Cyp2b10 and PXR protein in liver microsomes of all mice samples was carried out by SDS-PAGE and Western blotting. To detect murine and human PXR protein, an antibody (RF8) was employed. For the identification of Cyp3a and Cyp2b, […] were used, (CH32 and CH4, respectively).
On the technique in general: Microsomes from liver hold many membrane-bound enzymes, among them those of drug oxidation.

Series [2] concerns Cyp2b10. Description: Cyp2b10 protein expression of treated mice by SDS-PAGE and Western blotting. The note with it: for Cyp2b10 induction (Western blot and PROD activity): CITCO 10 mg/kg; for Cyp2b10 induction profile (Western blot and PROD, liver microsomes): wild-type vs huCAR mice, increasing amounts. As to the method: as §1
Control animals were administered vehicle (corn oil) daily by intraperitoneal injection. The volume of vehicle and solutions of inducing agents administered was 10 ml/kg bodyweight. This route of administration was chosen for consistency with previously published work. […]
as §2
A general note: In western blotting, separated proteins are transferred to a membrane and probed.

A further series concerns liver cells. Description: BrdU incorporation in liver (hepatic cell proliferation, S-phase labelling index). Format: in vivo, mouse. The note with it: wild-type and huCAR mice. A general note: Dividing cells build labelled thymidine or BrdU into new DNA.
The test system of series [3] is components of drug metabolism pathways. The note with it: inducer of components of drug metabolism pathways; species in which it is known to act more potently; cited from earlier work.
Series [4] has as its system Cyp2b10. Put plainly: pentoxyresorufin-O-deethylation (PROD) and BROD activity assay in liver microsomes of treated mice.
Series [5] relates to Cyp3a11. Conditions: wild-type mice (Ma et al. 2007); cited from earlier work.
In a further series the test system is cytochrome P450 enzymes. The note with it: single ip; for induction of testosterone 16-beta-hydroxylation: 1 mg/kg. As to the method:
The study consisted of 3 animals per group. Control groups consisted of mice treated with either corn oil daily for 4 days or mice administered a single injection of corn oil. The treated mice were dosed with inducing agents as detailed in Table 3.1.
PXR activity was determined by measuring the metabolism of a number of cytochrome P450 substrates which are metabolised to different extents by different cytochrome P450 enzymes. The following assays were performed: • 7-benzyloxyquinoline (BQ) activity was determined in liver microsomes. • Testosterone hydroxylase activity was determined in liver microsomes (LMS HPLC-006). • The specific activities of these reactions was expressed per mg protein as determined using the Lowry assay (LMS Spec-0001).

The procedure of series [6]: For the same animals, plasma levels of alanine aminotransferase (ALT), alkaline phosphatase (ALP) and aspartate aminotransferase (AST) were also measured (see FIG. 40). […] Both compounds were administered at 40 mg/kg.
Plasma levels of alanine aminotransferase (ALT), alkaline phosphatase (ALP) and aspartate aminotransferase (AST) were also measured (see FIG. 46).

Series [7] in a line: Pentobarbitone sleeping test. Format: in vivo, mouse. The note with it: single ip dose 25 mg/kg. The method, then:
In this experiment, the activity of these transcription factors in combination was determined by measuring the barbiturate induced sleeping time. Sleeping time has been known for many years to be directly proportional to the hepatic cytochrome P450 activity and this activity can be at least in part ascribed to the P450 levels in the liver determined by CAR and PXR function.
Mice were given a single intraperitoneal dose of Narcoren (sodium pentobarbitone; purchased via a Veterinary Consultant; distributed by Merial GmbH, Germany) at 25 mg/kg of body weight. The time taken for the mice to lose, and subsequently to regain, their righting reflex was measured.

The mark [8] stands for this setting: wild type mice, TCPOBOP 1 mg/kg.

As for `Clc1ccc(-c2nc3sccn3c2C=NOCc2ccc(Cl)c(Cl)c2)cc1` [CITCO, 6-(4-chlorophenyl)imidazo[2,1-b][1,3]thiazole-5-carbaldehyde O-(3,4-dichlorobenzyl)oxime], the “Cyp3a11 expression in liver (Western blot)” value in the series on Cyp3a11 [1] (huCAR mice) is on record as “clearly induced”; with Cyp3a11 [1] (wild type mice), “did not induce”. Besides, the results for the “Cyp2b10 induction (Western blot and PROD activity)” value in the series on Cyp2b10 [2] (huCAR mice), in the series on Cyp2b10 [2] (koPXR mice) and in the series with Cyp2b10 [2] (wild-type mice) were “strong induction”, “Some induction” and “not substantially induced”, respectively. The “Cyp2b10 expression in liver (Western blot)” value in the series on Cyp2b10 [2] (huCAR mice, single injection 0, 1, 10, 50 mg/kg, 48 hours) is listed as “clearly induced”; with Cyp2b10 [2] (wild type mice, single injection 0, 1, 10, 50 mg/kg, 48 hours), “did not induce”. For the same compound, the “Cyp2b10 induction profile (Western blot and PROD, liver microsomes)” value in the series with Cyp2b10 [2] is on record as “stronger response in huCAR than in the wild-type”. In addition, the “fraction of BrdU positive cells in the liver” value with liver cells (20 mg/kg 4 times daily, one day after final dose) is “elevated counts of BrdU positive liver cells only in huCAR animals, not in the wild-type”. In addition, the “More potent in:” value in series [3] is reported as “human”. The PROD activity result in the series with Cyp2b10 [4] (huCAR mice, increasing amounts of CITCO) is given as “marked, dose-dependent induction of PROD activity”.

Consider `Clc1ccccc1C(c1ccccc1)(c1ccccc1)n1ccnc1` [Clotrimazole], for which the “More potent in:” value in series [3] is listed as “mouse”.

On to `CC(=O)[C@H]1[C@H](C#N)C[C@H]2[C@@H]3CC=C4C[C@@H](O)CC[C@]4(C)[C@H]3CC[C@@]21C` [PCN, 5-Pregnen-3β-ol-20-one-16α-carbonitrile], for which the “More potent in:” value in [3] is given as “mouse”. In the series on Cyp3a11 [5], the “induction of Cyp3a11 mRNA” value is given as “strongly induced”.

For the compound `Clc1cnc(Oc2ccc(Oc3ncc(Cl)cc3Cl)cc2)c(Cl)c1` [TCPOBOP], in the series with Cyp3a11 [1] (setting [8]), the “Cyp3a11 expression (Western blot and BQ activity)” value is on record as “somewhat induced”. Moreover, the “Cyp2b10 expression (Western blot and PROD activity)” value with Cyp2b10 [2] (huCAR mice, TCPOBOP 1 mg/kg) is “did not significantly induce”; in the series with Cyp2b10 [2] (setting [8]) it was “induced; also recorded: strongly induced”. The “Cyp2b10 induction in liver (Western blot, densitometry)” value in the series on Cyp2b10 [2] (koCAR mice, 1 mg/kg) is listed as “no Cyp2b10 was induced”. In the series with Cyp2b10 [2] (koPXR mice, TCPOBOP 1 mg/kg), the “Cyp2b10 protein expression and PROD activity” value was “comparable to wild type”. In addition, in the series on Cyp2b10 [2], the “Cyp2b10 induction profile (Western blot and PROD, liver microsomes)” value is recorded as “more strongly in the wild-type than huCAR mice”. Also, the “induction of testosterone 16-beta-hydroxylation” value in the series with cytochrome P450 enzymes (huPXR mice) is 1.7 fold; in the series on cytochrome P450 enzymes (wild type mice), “approximately 6 fold”. For the same compound, in the series with cytochrome P450 enzymes (wild type and huPXR mice, TCPOBOP 0.3 and 1 mg/kg), the “induction of 6-beta-hydroxylation of testosterone” value is recorded as “inducible in both strains of mouse”. In addition, the “induction of testosterone 16-alpha-hydroxylation” value in the series on cytochrome P450 enzymes (wild type mice, TCPOBOP 0.3 and 1 mg/kg) is “significantly induced”. For the same compound, the “fraction of BrdU positive cells in the liver” value with liver cells (single dose 3 mg/kg, one day after dose) was “elevated counts of BrdU positive liver cells only in wild-type animals”. The “More potent in:” value in series [3] was “mouse”.

For `C[C@@H]1C[C@H]2[C@@H]3CCC4=CC(=O)C=C[C@]4(C)[C@@]3(F)[C@@H](O)C[C@]2(C)[C@@]1(O)C(=O)CO` [dexamethasone], in the series on Cyp2b10 [2] (mouse, in vivo, 10 mg/kg), the Cyp2b10 expression entry is “induced Cyp2b10 expression in both wild-type and huCAR mice”; the “Cyp2b10 induction (Western blot), comparison” value is given as “less pronounced in huCAR than in wild-type mice”. In the series on Cyp2b10 [2] (mouse, in vivo, 40 mg/kg), the “Cyp2b10 expression in liver (Western blot)” value is “still induced”. Also, the “induction of Cyp2b10 (Western blot)” value in the series with Cyp2b10 [2] (mouse, in vivo, 60 mg/kg) is given as “induced”. Besides, the mortality result in series [6] (huPXR mice, dexamethasone 60 mg/kg) is “One dexamethasone-treated huPXR mouse died”. For the same compound, the “increase in plasma ALT levels and liver weights” value in [6] (mouse, in vivo, 30 mg/kg) is “clearly more pronounced in mice lacking murine PXR”. Further, the “Cyp2b10 induction (PROD activity), comparison” value in the series with Cyp2b10 [4] (huCAR vs wild type mice, 10 mg/kg) was “weaker in huCAR than in wild type mice”. Moreover, in the series on Cyp2b10 [4] (koCAR mice, 40 mg/kg), the PROD activity entry is on record as “still induced”. In the series with Cyp2b10 [4] (wild-type, huPXR and koPXR mice, 60 mg/kg), the PROD activity entry is reported as “corresponding results were obtained”.

Consider `CCCC(C)C1(CC)C(=O)NC(=O)NC1=O` (stereo not shown) [pentobarbitone, sodium pentobarbitone], for which the “Sleeping time” value in [7] (PXR/CAR hum (double humanised) male mouse) stood at 34 min; in series [7] (wt male mouse), 21 min.
